Experimental data published in paper PMC4276521 (Biochemical pharmacology, 2014).
Values joined by “and” are separate entries in the source; they are usually repeats but may differ in a detail not shown here. Identical values can stand only once. Counter-ions that a name gives are not always drawn. Like-named read-outs stand apart in the source and are kept apart here.

What was measured:
DRD2 [1] = molecular target: T1, DRD2 (Homo sapiens, UniProt P14416)
DRD2 [2] = molecular target: T1, DRD2; remark: listed apart in the source
DRD2 [3] = molecular target: T1, DRD2; remark: listed apart in the source
DRD2 [4] = molecular target: T1, DRD2; details: HEK-AC5/D2 cells; percentage of dopamine's response, standard error in brackets
DRD2 [5] = molecular target: T1, DRD2; assay: cell-based

T1 sequence (P14416 whole entry, species assumed): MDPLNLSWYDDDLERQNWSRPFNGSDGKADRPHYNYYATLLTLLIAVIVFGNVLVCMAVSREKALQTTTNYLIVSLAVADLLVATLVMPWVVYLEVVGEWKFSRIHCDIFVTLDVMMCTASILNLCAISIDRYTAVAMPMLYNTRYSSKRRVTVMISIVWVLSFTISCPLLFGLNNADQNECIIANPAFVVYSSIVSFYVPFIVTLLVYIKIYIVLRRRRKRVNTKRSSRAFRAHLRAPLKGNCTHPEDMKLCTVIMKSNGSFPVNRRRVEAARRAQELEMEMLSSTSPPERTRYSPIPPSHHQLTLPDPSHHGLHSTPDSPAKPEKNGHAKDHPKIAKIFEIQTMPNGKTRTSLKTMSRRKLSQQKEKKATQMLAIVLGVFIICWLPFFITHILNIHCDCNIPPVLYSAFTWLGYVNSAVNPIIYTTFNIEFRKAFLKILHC

Compound | Gβγ activation Max (DRD2 [1]) | DMR (AUC) Max (DRD2 [2]) | Gαi/o activation Max (DRD2 [3]) | Gβγ activation Max (DRD2 [1]; HEK-AC2/D2 cells, percentage of dopamine's response, standard error in brackets) | DMR (AUC) Max (DRD2 [2]; HEK-D2 cells, percentage of dopamine's response, standard error in brackets) | Gαi/o activation Max (DRD2 [3]; HEK-AC5/D2 cells, percentage of dopamine's response, standard error in brackets) | Sensitization Max (DRD2 [4]) | EC50 (DRD2 [5]) [pM]
CCCN[C@H]1CCc2nc(N)sc2C1 [Pramipexole, pramipexole dihydrochloride] | 98% and 98 (±5) % | 98 (±2) % | 87 (±4) % |  |  |  |  | 
CCCN(CCC)CCc1cccc2c1CC(=O)N2 [Ropinirole, ropinirole hydrochloride] |  |  |  | 70 (±4) % | 100 (±2) % | 81 (±6) % | 126 (±3) % | 
CCCN(CCc1cccs1)[C@H]1CCc2c(O)cccc2C1 [Rotigotine, rotigotine hydrochloride] | 79% and 79 (±4) % |  | 88 (±4) % |  |  |  |  | 50
